Laboratory results: ChEMBL document CHEMBL1201862, “PubChem BioAssay data set” (2004)
Values belong to the compound of their own block, whether it stands above or below them. The source made the active and inactive calls. Rule as the data show it, for most assays here: actives have a measured IC50 and inactives only a lower limit.

Key:
Caspase-3 [1] = molecular target: T1, Caspase-3 (Homo sapiens, UniProt P42574); assay type: functional
T1 sequence (P42574 whole entry): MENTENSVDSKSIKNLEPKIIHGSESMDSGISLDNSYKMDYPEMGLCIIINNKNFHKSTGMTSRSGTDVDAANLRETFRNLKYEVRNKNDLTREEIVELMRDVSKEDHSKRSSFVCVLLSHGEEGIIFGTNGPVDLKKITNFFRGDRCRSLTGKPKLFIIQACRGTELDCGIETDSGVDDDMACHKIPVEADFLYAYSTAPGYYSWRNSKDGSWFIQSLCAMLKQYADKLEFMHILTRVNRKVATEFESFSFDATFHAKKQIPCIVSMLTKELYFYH

[2] = molecular target: T2, Sentrin-specific protease 7 (Homo sapiens, UniProt Q9BQF6); assay type: functional;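 also: Luminescence-based dose-response confirmation of ultra-high-throughput screening hits, measuring inhibition of SENP7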
T2 sequence (Q9BQF6 whole entry): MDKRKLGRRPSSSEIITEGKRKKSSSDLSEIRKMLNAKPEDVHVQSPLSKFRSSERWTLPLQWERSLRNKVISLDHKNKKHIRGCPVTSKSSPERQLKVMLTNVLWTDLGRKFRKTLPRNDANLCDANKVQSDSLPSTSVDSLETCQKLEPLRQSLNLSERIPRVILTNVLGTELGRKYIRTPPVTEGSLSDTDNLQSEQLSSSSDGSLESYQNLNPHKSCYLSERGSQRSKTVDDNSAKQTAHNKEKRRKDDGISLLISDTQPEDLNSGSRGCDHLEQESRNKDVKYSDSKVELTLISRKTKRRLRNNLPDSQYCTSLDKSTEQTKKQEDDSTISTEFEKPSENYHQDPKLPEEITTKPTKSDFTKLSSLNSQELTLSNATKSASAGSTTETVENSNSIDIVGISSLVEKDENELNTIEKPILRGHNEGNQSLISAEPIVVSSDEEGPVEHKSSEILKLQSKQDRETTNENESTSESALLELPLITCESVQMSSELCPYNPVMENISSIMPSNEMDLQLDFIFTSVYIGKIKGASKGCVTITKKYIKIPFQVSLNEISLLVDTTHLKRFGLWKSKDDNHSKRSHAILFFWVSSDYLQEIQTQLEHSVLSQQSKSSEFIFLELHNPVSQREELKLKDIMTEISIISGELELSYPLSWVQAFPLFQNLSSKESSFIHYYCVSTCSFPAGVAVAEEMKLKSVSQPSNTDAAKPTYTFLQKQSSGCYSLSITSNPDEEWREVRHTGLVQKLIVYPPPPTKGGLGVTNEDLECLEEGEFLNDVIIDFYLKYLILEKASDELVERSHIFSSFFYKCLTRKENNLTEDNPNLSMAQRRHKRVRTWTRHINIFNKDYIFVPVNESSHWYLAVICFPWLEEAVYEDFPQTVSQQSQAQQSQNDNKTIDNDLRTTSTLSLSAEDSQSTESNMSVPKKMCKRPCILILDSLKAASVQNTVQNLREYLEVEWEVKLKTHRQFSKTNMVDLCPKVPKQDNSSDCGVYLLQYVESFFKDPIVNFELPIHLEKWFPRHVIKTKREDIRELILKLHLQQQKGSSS

[3] = molecular target: T3, Sentrin-specific protease 6 (Homo sapiens, UniProt Q9GZR1); assay type: functional
T3 sequence (Q9GZR1 whole entry): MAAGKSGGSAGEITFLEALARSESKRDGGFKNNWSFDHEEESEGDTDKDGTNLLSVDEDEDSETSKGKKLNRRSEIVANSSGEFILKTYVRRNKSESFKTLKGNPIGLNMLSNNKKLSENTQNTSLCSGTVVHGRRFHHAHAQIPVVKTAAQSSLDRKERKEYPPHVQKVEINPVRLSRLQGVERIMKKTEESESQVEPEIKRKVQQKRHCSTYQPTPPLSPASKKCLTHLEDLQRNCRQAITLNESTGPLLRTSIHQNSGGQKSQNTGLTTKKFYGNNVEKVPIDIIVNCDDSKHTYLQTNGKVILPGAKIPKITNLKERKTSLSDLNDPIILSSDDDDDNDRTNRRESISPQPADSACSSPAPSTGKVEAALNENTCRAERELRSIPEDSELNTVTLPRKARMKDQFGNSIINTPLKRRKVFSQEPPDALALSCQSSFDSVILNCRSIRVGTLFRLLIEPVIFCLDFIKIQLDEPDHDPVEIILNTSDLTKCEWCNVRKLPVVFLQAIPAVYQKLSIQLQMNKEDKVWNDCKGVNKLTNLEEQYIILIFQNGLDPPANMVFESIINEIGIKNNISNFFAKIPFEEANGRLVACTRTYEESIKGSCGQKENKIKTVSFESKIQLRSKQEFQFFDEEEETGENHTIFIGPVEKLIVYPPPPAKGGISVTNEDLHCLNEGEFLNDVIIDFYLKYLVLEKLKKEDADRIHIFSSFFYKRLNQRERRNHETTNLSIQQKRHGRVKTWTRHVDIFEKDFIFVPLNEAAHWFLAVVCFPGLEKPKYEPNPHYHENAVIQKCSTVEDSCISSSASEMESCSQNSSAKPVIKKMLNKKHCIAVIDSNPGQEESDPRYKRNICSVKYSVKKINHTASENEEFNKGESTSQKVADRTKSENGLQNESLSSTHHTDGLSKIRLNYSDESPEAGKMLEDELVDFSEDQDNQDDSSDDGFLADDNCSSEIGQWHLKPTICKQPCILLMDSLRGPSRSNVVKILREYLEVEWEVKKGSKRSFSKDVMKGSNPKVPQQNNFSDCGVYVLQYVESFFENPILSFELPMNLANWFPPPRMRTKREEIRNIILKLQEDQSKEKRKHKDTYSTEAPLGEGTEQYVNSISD

[4] = molecular target: T4, Sentrin-specific protease 8 (Homo sapiens, UniProt Q96LD8); assay type: functional;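 also: luminescence read-out of SENP8 inhibition, dose-response confirmation following an ultra-high-throughput screen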
T4 sequence (Q96LD8 whole entry): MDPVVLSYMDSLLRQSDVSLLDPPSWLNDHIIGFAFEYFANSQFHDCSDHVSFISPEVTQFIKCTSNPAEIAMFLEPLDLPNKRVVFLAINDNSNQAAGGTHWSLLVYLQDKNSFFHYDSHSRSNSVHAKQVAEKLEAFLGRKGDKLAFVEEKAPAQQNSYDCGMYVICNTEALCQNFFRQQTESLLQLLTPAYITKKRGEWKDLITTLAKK

[5] = molecular target: T2, Sentrin-specific protease 7; assay: inhibition of human SENP7 cleavage activity – biochemical, luminescence, SAR follow-up (AID 504497); assay type: functional
[6] = molecular target: T4, Sentrin-specific protease 8; assay: inhibition of human SENP8 cleavage activity – biochemical, luminescence, SAR follow-up (AID 504501); assay type: functional
Caspase-3 [7] = molecular target: T1, Caspase-3; assay: SAR Analysis of small molecule inhibitors of Sentrin-specific proteases (SENPs) using a Caspase-3 Selectivity assay. [Related pubchem assays (depositor defined):AID2540, AID2599, AID434973, AID489001]; assay type: functional
[8] = molecular target: T3, Sentrin-specific protease 6; assay: SAR Analysis of small molecule inhibitors of Sentrin-specific protease 6 (SENP6) using a Luminescent assay. [Related pubchem assays (depositor defined):AID2582, AID2599]; assay type: functional
Phospholipase A2 = Phospholipase A2 (Homo sapiens, UniProt P04054); assay type: functional;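 also: confirmatory dose-response counterscreen on phospholipase A2, testing hits that came from an ultra-high-throughput screen for ATG4B inhibitors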
HEK293 [9] = assay: cells; assay type: functional, cell-based; conditions: Homo sapiens
[10] = molecular target: Nucleotide-binding oligomerization domain-containing protein 2 (Homo sapiens, UniProt Q9HC29); assay: inhibition of NOD2-driven NF-kB reporter – cell-based, luminescence, uHTS, HEK293 (AID 1566); assay type: functional
HEK293 [11] = assay: cells; assay type: functional, cell-based; conditions: Homo sapiens; remark: listed apart in the source
HEK293 [12] = assay: inhibition of NOD1-driven NF-kB reporter – cell-based, luminescence, uHTS, primary screen (AID 1578); assay type: functional; conditions: Homo sapiens
HEK293 [13] = assay: cells; assay type: functional, cell-based; conditions: Homo sapiens; remark: listed apart in the source
HEK293 [14] = assay: NOD2 signaling inhibitors in MDP-stimulated cells, cell-based, uHTS, luminescence (AID 2001); assay type: functional; conditions: Homo sapiens
Cysteine protease ATG4B = Cysteine protease ATG4B (Homo sapiens, UniProt Q9Y4P1); assay type: functional;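 also: Fluorescence-based dose-response confirmation assay measuring inhibition of ATG4B activity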
Chain of Cysteine protease ATG4B (Q9Y4P1 whole entry): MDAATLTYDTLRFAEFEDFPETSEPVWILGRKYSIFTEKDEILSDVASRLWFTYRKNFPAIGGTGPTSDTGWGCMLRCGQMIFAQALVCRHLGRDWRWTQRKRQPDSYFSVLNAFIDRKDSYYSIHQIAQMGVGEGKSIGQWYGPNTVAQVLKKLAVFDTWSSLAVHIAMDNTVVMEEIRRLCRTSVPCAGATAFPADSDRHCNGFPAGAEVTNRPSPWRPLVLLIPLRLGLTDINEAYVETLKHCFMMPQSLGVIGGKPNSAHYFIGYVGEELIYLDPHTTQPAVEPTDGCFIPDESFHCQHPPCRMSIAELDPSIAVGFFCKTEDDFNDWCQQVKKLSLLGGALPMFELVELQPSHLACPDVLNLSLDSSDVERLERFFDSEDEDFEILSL

Chain of Phospholipase A2 (P04054 whole entry): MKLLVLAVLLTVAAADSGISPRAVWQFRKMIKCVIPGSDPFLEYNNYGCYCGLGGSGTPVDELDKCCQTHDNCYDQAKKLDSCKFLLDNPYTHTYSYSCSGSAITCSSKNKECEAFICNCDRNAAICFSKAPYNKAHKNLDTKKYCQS
Chain of Nucleotide-binding oligomerization domain-containing protein 2 (Q9HC29 whole entry, the tested form may be a part): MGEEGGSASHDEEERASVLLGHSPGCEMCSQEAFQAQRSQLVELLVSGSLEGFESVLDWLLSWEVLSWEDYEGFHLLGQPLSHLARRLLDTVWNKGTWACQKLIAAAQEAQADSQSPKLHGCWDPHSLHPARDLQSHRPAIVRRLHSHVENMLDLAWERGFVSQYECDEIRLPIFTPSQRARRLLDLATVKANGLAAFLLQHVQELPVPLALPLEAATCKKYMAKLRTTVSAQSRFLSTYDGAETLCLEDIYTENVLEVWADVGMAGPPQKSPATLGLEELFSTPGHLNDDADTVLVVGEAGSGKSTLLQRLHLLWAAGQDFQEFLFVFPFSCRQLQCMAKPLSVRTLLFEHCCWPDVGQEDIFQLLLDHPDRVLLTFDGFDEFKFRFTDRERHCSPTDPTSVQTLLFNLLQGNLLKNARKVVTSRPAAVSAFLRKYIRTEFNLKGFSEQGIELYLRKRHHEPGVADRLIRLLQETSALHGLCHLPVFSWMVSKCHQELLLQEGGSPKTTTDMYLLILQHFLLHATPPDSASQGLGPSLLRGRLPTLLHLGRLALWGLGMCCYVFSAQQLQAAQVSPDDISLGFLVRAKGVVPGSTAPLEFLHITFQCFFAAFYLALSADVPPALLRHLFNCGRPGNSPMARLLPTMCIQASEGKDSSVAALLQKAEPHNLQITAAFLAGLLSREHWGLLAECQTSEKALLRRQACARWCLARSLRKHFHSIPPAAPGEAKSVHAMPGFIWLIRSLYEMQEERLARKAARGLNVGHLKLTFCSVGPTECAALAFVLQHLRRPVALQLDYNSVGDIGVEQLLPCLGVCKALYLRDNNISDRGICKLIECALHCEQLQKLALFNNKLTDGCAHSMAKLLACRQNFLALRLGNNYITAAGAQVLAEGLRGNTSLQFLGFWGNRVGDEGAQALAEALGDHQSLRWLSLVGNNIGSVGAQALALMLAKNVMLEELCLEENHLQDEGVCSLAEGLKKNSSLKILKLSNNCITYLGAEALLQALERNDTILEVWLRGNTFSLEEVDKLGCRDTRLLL

IC50 (Caspase-3 [1]): 25.3 µM (active)
IC50 [2]: 5.92 µM (active)
IC50 [3]: 20.1 µM (active)
Structure (SMILES): c1csc(-c2csc(-c3cccs3)n2)c1
IC50 [4]: 28.2 µM (active)

IC50 [5]: 10.9 µM (active)
IC50 (Caspase-3 [7]): 18.7 µM (active)
IC50 [8]: 84.4 µM (active)
Structure (SMILES): CCCC(=O)Nc1ccc(-c2nc3cc(Cl)ccc3s2)cc1
IC50 [6]: 82.4 µM (active)

Structure (SMILES): CC(=O)Nc1ccc(C(=O)Nc2nc(-c3cc(C)n(Cc4ccccc4)c3C)cs2)cc1
IC50 (Phospholipase A2): 5.37 µM (active)
IC50 (HEK293 [9]): > 20 µM (inactive)
EC50 [10]: > 20 µM (inactive)
IC50 (HEK293 [11]): > 20 µM (inactive)
EC50 (HEK293 [12]): > 20 µM (inactive)
IC50 (HEK293 [13]): > 20 µM (inactive)
IC50 (HEK293 [14]): > 20 µM (inactive)
IC50 (Cysteine protease ATG4B): 10.2 µM (active)

IC50 (Caspase-3 [1]): 1.59 µM (active)
IC50 [2]: 2.07 µM (active)
IC50 [3]: 2.96 µM (active)
Structure (SMILES): CC1=NN(C(N)=S)C(=O)C1N=Nc1ccc(Cl)cc1 (stereo not given)
IC50 [4]: 2.58 µM (active)
